{"source": "patent US10011562B2", "about": "“Long-chain dimethylaniline derivative compounds, their preparation methods, self-assembled textures, and uses thereof” (WEST CHINA HOSPITAL, SICHUAN UNIVERSITY, priority 2014, dated 2018)", "key": {"sciatic nerve of rats [1]": {"test_system": "sciatic nerve of rats", "test": "Second local anesthetic experiment of rats: blocking of sciatic nerve, motor function (PET)", "type": "in vivo", "settings": "0.2 ml of formulated solution injected close to sciatic nerve, lidocaine 2% (84 mmol/L)", "method": "(§1) The tested rats were placed on bench board and allowed to inhale 5% isoflurane. After body-righting reflex abolition, rats are allowed to continue inhaling 1.5% isoflurane, to keep anesthesia. Keeping left-lateral position, their corresponding injection area sacrococygeal region was shaved, then routine sterilization and draping were performed. Two osseous anatomic landmarks greater trochanter of femur and tuber is chiadicum were laid hands, and the middle point of this line was the needle insertion position. If skin was taut, 1 ml injector was inserted along perpendicular of skin. When needlepoint reached hucklebone, the insertion was finished. Once no blood return was found as suction, 0.2 ml drug solution was slowly injected. Needle was lifted, and is oflurane was shut off. Animals were placed in observation cage until they naturally awakened.\nThe hindlimb postural extensor thrust (PET) was used for evaluation. Rats were lifted vertically and their hindlimbs of injection side stepped on the top of electronic balance. At this time, the postural extensor thrust was shown as the value of balance. When limbs were completely paralytic, the digital reading was the weight of limbs, about 20 g. […]"}, "sciatic nerve of rats [2]": {"test_system": "sciatic nerve of rats", "test": "Third local anesthetic experiment of rats: hydrogels embedded near the sciatic nerve, mechanical withdrawal threshold (VFH)", "type": "in vivo", "method": "(§2) Rats were placed in transparent observation cages with a bottom of smooth metal sieve plate, and the corrected von frey filament was used to stimulate the foot lateral skin of rats (innervated region of sciatic nerve) from down to up. […] For each stimulation, slightly bent of filament was used as a standard, or rats moved aside this side of limbs. Otherwise, once the stimulation time reached 3 s, operator stopped stimulating. Three tests were carried out for each time point, and the interval between two tests was 5 min, to avoid sensibilization.\n(§3) If the mechanical withdrawal threshold value was more than 60 g, the nerve blocking was considered as effective.\n(§4) 25 mmol/L transparent uniform hydrogels of products obtained in Examples 7-10 and 13-32 were prepared under sterile conditions, as the method of Example 45, and kept for use.\n(§5) Above hydrogels, positive control lidocaine, and negative control normal saline were respectively administrated to 35 groups of test rats fully adapted to experiment environment, with five rats for each group. The administration dosage is: the concentration of lidocaine group being 2% aqueous solution (84 mmol/L). The injection volume of each rat receiving drugs or the control was […], and the control was injected to near the sciatic nerve of rats by guidance of nerve locator; by surgery, the gels were embedded near the sciatic nerve of experimental rats after general anesthesia using sevoflurane. Specific procedures and the evaluation criterion for local anesthetic effect were same as mentioned in Example 60."}, "sciatic nerve of rats [3]": {"test_system": "sciatic nerve of rats", "test": "First local anesthetic experiment of rats: blocking of sciatic nerve, motor function by hindlimb postural extensor thrust (PET)", "type": "in vivo", "method": "(§6) Selected above micelle, positive control lidocaine, and negative control normal saline were respectively administrated to 28 groups of test rats fully adapted to experiment environment, with five rats for each group. The administration dosage is: the concentration of lidocaine group being 2% aqueous solution (84 mmol/L), and the concentration of tested drug being 5 mmol/L. The injection volume of each rat receiving drugs or the control was 0.2 ml, and the drug or the control was injected to close to sciatic nerve of rats by guidance of nerve locator.\nas §1, with “Once no blood return was found as suction, 0.2 ml drug solution was slowly injected.” left out\n(§7) The hindlimb postural extensor thrust (PET) was used for evaluation. Rats were lifted vertically and their hindlimbs of injection side stepped on the top of electronic balance. At this time, the postural extensor thrust was shown as the value of balance. When limbs were completely paralytic, the digital reading was the weight of limbs, about 20 g. If the test value was more than half of the difference between the baseline and the limbs weight, the motor function was taken as recovery; If less than or equal to half of the difference, the motor function was taken as deprivation.\n(§8) The interval between completion of injection and the time point that the motor function was firstly deprivated was the time of effective motor blocking; the interval between completion of injection and the time point that the motor function was firstly recovered was the time of ineffective motor blocking; their difference was the hold time of motor blocking."}, "sciatic nerve of rats [4]": {"test_system": "sciatic nerve of rats", "test": "Second local anesthetic experiment of rats: blocking of sciatic nerve, mechanical withdrawal threshold (VFH)", "type": "in vivo", "settings": "0.2 ml of formulated solution injected close to sciatic nerve, lidocaine 2% (84 mmol/L)", "method": "as §1\nas §2, with “sensibilization. […]” for “sensibilization.”"}, "sciatic nerve of rats [5]": {"test_system": "sciatic nerve of rats", "test": "First local anesthetic experiment of rats: blocking of sciatic nerve, mechanical withdrawal threshold (VFH, von Frey filaments)", "type": "in vivo", "method": "as §6\nas §1, with “Once no blood return was found as suction, 0.2 ml drug solution was slowly injected.” left out\nas §2, §3"}, "sciatic nerve of rats [6]": {"test_system": "sciatic nerve of rats", "test": "Third local anesthetic experiment of rats: hydrogels embedded near the sciatic nerve, motor function (PET)", "type": "in vivo", "text": "as §7, §8, §4, §5"}, "Na+ channels": {"test_system": "Na+ channels", "settings": "with the addition of surface-active agent or with the help of forming micelles; cited from earlier work"}, "[7]": {"settings": "rats, 25 mmol/L hydrogel, 0.2 g embedded by surgery near sciatic nerve, lidocaine 2% (84 mmol/L) injected"}}, "note": "Counter-ions that a name gives are not always drawn.", "data": [{"smiles": "CCN(CC)CC(=O)Nc1c(C)cccc1C", "note": "[2% lidocaine hydrochloride, lidocaine hydrochloride, reference compound]", "values": [{"measurement": "The hold time of motor blocking", "setting": "sciatic nerve of rats [1]", "result": 2, "unit": "h"}, {"measurement": "Effective local anesthetic time", "setting": "sciatic nerve of rats [2]; [7]", "result": 1, "unit": "min"}, {"measurement": "The hold time of sensation blocking", "setting": "sciatic nerve of rats [2]; [7]", "result": 2, "unit": "h"}, {"measurement": "The hold time of motor blocking", "setting": "sciatic nerve of rats [3]; rats, 0.2 ml injected close to sciatic nerve, tested drug 5 mmol/L solution (micelle), lidocaine 2% (84 mmol/L)", "result": 2, "unit": "h"}, {"measurement": "Effective local anesthetic time", "setting": "sciatic nerve of rats [4]", "result": 1, "unit": "min"}, {"measurement": "The hold time of sensation blocking", "setting": "sciatic nerve of rats [4]", "result": 2, "unit": "h"}, {"measurement": "The hold time of sensation blocking", "setting": "sciatic nerve of rats [5]; rats, 0.2 ml injected close to sciatic nerve, tested drug 5 mmol/L solution (micelle), lidocaine 2% (84 mmol/L), threshold above 60 g", "result": 2, "unit": "h"}, {"measurement": "Effective local anesthetic time", "setting": "sciatic nerve of rats [5]; rats, 0.2 ml injected close to sciatic nerve, tested drug 5 mmol/L solution (micelle), lidocaine 2% aqueous solution (84 mmol/L)", "result": 1, "unit": "min"}, {"measurement": "The hold time of motor blocking", "setting": "sciatic nerve of rats [6]; [7]", "result": 2, "unit": "h"}]}, {"smiles": "CCCCCCCCCCCCCCCCOC(=O)OCC[N+](CC)(CC)CC(=O)Nc1c(C)cccc1C", "note": "[Example29product]", "values": [{"measurement": "Effective local anesthetic time", "setting": "sciatic nerve of rats [2]; rat, in vivo", "result": 92, "unit": "min"}, {"measurement": "The hold time of sensation blocking", "setting": "sciatic nerve of rats [2]; rat, in vivo", "result": 86, "unit": "h"}, {"measurement": "The hold time of motor blocking", "setting": "sciatic nerve of rats [3]; rat, in vivo", "result": 80, "unit": "h"}, {"measurement": "Effective local anesthetic time", "setting": "sciatic nerve of rats [5]; rat, in vivo", "result": 20, "unit": "min"}, {"measurement": "The hold time of sensation blocking", "setting": "sciatic nerve of rats [5]; rat, in vivo", "result": 78, "unit": "h"}, {"measurement": "The hold time of motor blocking", "setting": "sciatic nerve of rats [6]; rat, in vivo", "result": 84, "unit": "h"}]}, {"smiles": "CCCCCCCCCCCCCCCCOC(=O)OCC[N+](CC)(CC)CC(=O)Nc1c(C)cccc1C", "note": "[Example30product]", "values": [{"measurement": "Effective local anesthetic time", "setting": "sciatic nerve of rats [2]; rat, in vivo", "result": 95, "unit": "min"}, {"measurement": "The hold time of sensation blocking", "setting": "sciatic nerve of rats [2]; rat, in vivo", "result": 87, "unit": "h"}, {"measurement": "The hold time of motor blocking", "setting": "sciatic nerve of rats [3]; rat, in vivo", "result": 78, "unit": "h"}, {"measurement": "Effective local anesthetic time", "setting": "sciatic nerve of rats [5]; rat, in vivo", "result": 19, "unit": "min"}, {"measurement": "The hold time of sensation blocking", "setting": "sciatic nerve of rats [5]; rat, in vivo", "result": 74, "unit": "h"}, {"measurement": "The hold time of motor blocking", "setting": "sciatic nerve of rats [6]; rat, in vivo", "result": 86, "unit": "h"}]}, {"smiles": "CCCCCCCCCCCCCCCCCCOC(=O)OCC[N+](CC)(CC)CC(=O)Nc1c(C)cccc1C", "note": "[Example31product]", "values": [{"measurement": "Effective local anesthetic time", "setting": "sciatic nerve of rats [2]; rat, in vivo", "result": 92, "unit": "min"}, {"measurement": "The hold time of sensation blocking", "setting": "sciatic nerve of rats [2]; rat, in vivo", "result": 83, "unit": "h"}, {"measurement": "The hold time of motor blocking", "setting": "sciatic nerve of rats [3]; rat, in vivo", "result": 80, "unit": "h"}, {"measurement": "Effective local anesthetic time", "setting": "sciatic nerve of rats [5]; rat, in vivo", "result": 20, "unit": "min"}, {"measurement": "The hold time of sensation blocking", "setting": "sciatic nerve of rats [5]; rat, in vivo", "result": 78, "unit": "h"}, {"measurement": "The hold time of motor blocking", "setting": "sciatic nerve of rats [6]; rat, in vivo", "result": 78, "unit": "h"}]}, {"smiles": "CC[N+](CC)(CC)CC(=O)Nc1c(C)cccc1C.[Br-]", "note": "[QX314]", "values": [{"measurement": "local anesthetic actions lasting", "setting": "Na+ channels", "result": "more than 8 hours"}]}]}
